Assay results: patent publication US20250296960A1, “PEPTIDE COMPOSITIONS AND METHODS OF USE THEREOF” (priority 2022, published 2025)
Like-named read-outs stand apart in the source and are kept apart here. Numbered stars: 1 amine (or outer) side, 2 acyl side, 3 side chain; on linkers, the order of the positions; unused ones are H or OH. Square brackets hold non-standard residues; d marks the D form. Side chains are listed from the residue outwards. Peptide text beside a SMILES is read from it. * marks the point of attachment. Biotin = O=C1N[C@H]2[C@H](CS[C@H]2CCCCC(=O)*)N1; C18 diacid = O=C(O)CCCCCCCCCCCCCCCCC(=O)*; γGlu = O=C(O)[C@H](CCC(=O)[*:2])N[*:1]; AEEA = NCCOCCOCC(=O)O; Aib = CC(C)(N)C(=O)O

Experiments:
human GLP-1R = molecular target: T1, human GLP-1R (Homo sapiens, UniProt P43220); experiment: cAMP assay (HitHunter cAMP) in GLP-1R-expressing CHO-K1 cells (GLP-1R+ cells); type: cell-based
T1 construct: host or cells: CHO-K1
Outline: (§1)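 CHO-K1 cells expressing each receptor were plated overnight, then treated with peptide in cAMP assay buffer for 30 min at 37 °C. cAMP was detected by antibody plus detection solution (1 h) and Solution A (3 h), both at room temperature in the dark. Luminescence was the read-out.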

human GCGR = molecular target: T2, human GCGR (Homo sapiens, UniProt P47871); experiment: cAMP assay (HitHunter cAMP) in GCGR-expressing CHO-K1 cells (GCGR+ cells); type: cell-based
T2 construct: host or cells: CHO-K1
Outline: as §1

human GIPR = molecular target: T3, human GIPR (Homo sapiens, UniProt P48546); experiment: cAMP assay (HitHunter cAMP) in GIPR-expressing CHO-K1 cells (GIPR+ cells); type: cell-based
T3 construct: host or cells: CHO-K1
T3 sequence (P48546 22-466): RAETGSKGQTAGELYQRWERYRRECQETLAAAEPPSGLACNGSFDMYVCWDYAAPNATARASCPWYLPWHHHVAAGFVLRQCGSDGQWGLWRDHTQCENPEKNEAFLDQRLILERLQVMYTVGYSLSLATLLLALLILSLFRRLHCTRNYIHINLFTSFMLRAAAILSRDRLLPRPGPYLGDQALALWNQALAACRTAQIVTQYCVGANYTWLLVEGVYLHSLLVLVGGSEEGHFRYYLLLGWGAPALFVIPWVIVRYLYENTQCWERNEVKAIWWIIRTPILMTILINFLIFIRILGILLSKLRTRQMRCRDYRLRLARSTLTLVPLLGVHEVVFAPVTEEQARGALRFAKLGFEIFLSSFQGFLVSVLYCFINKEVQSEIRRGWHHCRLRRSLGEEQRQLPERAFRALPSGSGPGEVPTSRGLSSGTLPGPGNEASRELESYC
Outline: as §1

[1] = In vitro enzymatic stability against FaSSIF/P (pancreatin in FaSSIF, pH 6.5); type: in vitro ADME; settings: simulated gi fluid
Experimental: (§2) This study was conducted to determine the enzymatic stability of SEQ ID NOs. 77, 86, 87, 89, 90, and 91 after biotinylation in artificial intestinal environment. The test samples were prepared by mixing stock solutions of peptide and pancreatin dissolved in FaSSIF solution (pH 6.5) in a weight ratio of 25:1. The test samples were incubated at 37° C. for 120 min. The sampling from test samples was proceeded at the predetermined time points (10, 30, 60, and 120 min) and stopped by 10% TFA solution.
(§3) Analytical HPLC was performed to determine the remaining amount on an ACQUITY Premier system (Waters, USA) with an ACQUITY CSH C18 column (Waters, USA) at 35° C. using 0.1% TFA in water and acetonitrile. The remaining amount was determined as a percentage of the peak area at the sampling time point relative to the peak area of the initial sample.
(§4) For the stability against FaSSIF/P, the test samples were prepared by mixing stock solutions of peptide and pancreatin dissolved in FaSSIF solution (pH 6.5) in a weight ratio of 19:1. The test samples were incubated at 37° C. for 120 min. The sampling from test samples was proceeded at the predetermined time points (10, 30, 60, and 120 min) and stopped by 10% TFA solution.

[2] = type: in vitro ADME; settings: pH 7.8
Experimental: (§5) For the stability against trypsin, the test samples were prepared by mixing stock solutions of peptide and trypsin dissolved in 50 mM PBS (pH 7.8) containing 0.02% PS80 in a weight ratio of 10:1. The test samples were incubated at 37° C. for 180 min. The sampling from test samples was proceeded at the predetermined time points (10, 30, 60, 90, 120, and 180 min) and stopped by 10% TFA solution.
as §3

trypsin = type: in vitro ADME
Experimental: as §5, §3

[3] = Body weight loss in high fat diet (HFD) mice, 2 weeks; type: in vivo; settings: 20 nmol/kg s.c. Q2D
Experimental: This study was conducted to confirm the body weight loss effect and select the peptides to be evaluated in high fat diet (HFD) treated mouse, which is widely used as experimental animal model in obesity and diabetes studies. SEQ ID NOs. The peptides were delivered at 0.02% PS80 in PBS and dosing volume was 10 mL/kg. Body weight changes, blood glucose, and food intake were monitored Q2D. Animals were fasted at least 4 hours prior to blood glucose measurement.

FaSSIF/P = experiment: In vitro enzymatic stability against FaSSIF/P (pancreatin in FaSSIF, pH 6.5); type: in vitro ADME
Experimental: as §2, §3, §4

[4] = In vivo efficacy in mAMLN (obese and NASH) mice, 4 weeks; settings: after 4 weeks
[5] = Intestinal absorption / PK after intraduodenal administration of oral formulation in rats, serum LC-MS/MS; settings: rat, in vivo

T1 sequence (P43220 24-463): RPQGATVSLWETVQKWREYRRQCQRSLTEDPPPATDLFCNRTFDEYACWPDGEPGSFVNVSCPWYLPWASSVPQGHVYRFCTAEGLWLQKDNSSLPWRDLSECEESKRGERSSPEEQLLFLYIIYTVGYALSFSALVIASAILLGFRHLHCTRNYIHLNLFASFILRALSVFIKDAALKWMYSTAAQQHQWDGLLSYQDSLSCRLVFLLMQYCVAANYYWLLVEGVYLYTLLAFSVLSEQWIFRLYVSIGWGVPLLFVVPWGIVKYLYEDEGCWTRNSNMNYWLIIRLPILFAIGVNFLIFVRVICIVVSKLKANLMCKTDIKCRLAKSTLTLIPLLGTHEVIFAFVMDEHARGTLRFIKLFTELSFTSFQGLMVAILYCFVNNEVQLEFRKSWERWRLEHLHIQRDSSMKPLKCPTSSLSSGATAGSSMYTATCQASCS
T2 sequence (P47871 26-477): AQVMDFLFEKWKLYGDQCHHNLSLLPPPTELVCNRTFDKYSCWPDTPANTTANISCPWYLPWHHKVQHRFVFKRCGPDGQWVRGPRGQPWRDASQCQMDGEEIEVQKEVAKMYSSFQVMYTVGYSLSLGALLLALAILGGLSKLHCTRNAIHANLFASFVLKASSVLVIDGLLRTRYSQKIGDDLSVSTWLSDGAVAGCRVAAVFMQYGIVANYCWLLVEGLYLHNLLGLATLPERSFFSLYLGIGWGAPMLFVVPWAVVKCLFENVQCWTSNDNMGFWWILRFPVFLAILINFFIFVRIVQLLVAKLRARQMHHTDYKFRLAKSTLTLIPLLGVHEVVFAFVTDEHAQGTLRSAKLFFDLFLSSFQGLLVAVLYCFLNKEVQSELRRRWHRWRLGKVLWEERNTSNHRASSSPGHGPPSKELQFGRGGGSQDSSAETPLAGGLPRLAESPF

CSCC[C@H](NC(=O)[C@H](Cc1ccc(O)cc1)NC(=O)[C@H](CC(=O)O)NC(=O)[C@H](CC(C)C)NC(=O)[C@H](CC(C)C)NC(=O)[C@H](CCCCNC(=O)COCCOCCNC(=O)COCCOCCNC(=O)CC[C@H](NC(=O)CCCCCCCCCCCCCCCCC(=O)O)C(=O)O)NC(=O)[C@H](CO)NC(=O)[C@H](Cc1ccc(O)cc1)NC(=O)[C@H](CC(=O)O)NC(=O)[C@H](CO)NC(=O)[C@@H](NC(=O)[C@H](Cc1ccccc1)NC(=O)[C@@H](NC(=O)CNC(=O)[C@H](CCC(N)=O)NC(=O)C(C)(C)NC(=O)[C@@H](N)Cc1ccc(O)cc1)[C@@H](C)O)[C@@H](C)O)C(=O)N[C@@H](CCSC)C(=O)N[C@@H](CCC(N)=O)C(=O)N[C@@H](CCC(N)=O)C(=O)N[C@@H](CC(=O)O)C(=O)N[C@@H](Cc1ccccc1)C(=O)N[C@H](C(=O)N[C@@H](CCC(N)=O)C(=O)N[C@@H](Cc1c[nH]c2ccccc12)C(=O)N[C@@H](CC(C)C)C(=O)N[C@@H](CC(C)C)C(=O)N[C@@H](CCC(=O)O)C(=O)NCC(=O)NCC(=O)N1CCC[C@H]1C(=O)N[C@@H](CO)C(=O)N[C@@H](CO)C(=O)NCC(=O)N[C@@H](C)C(=O)N1CCC[C@H]1C(=O)N1CCC[C@H]1C(=O)N1CCC[C@H]1C(=O)N[C@@H](CO)C(N)=O)C(C)C [compound 100] (H-Y[Aib]QGTFTSDYSK([AEEA-AEEA-γGlu-C18 diacid])LLDYMMQQDFVQWLLEGGPSSGAPPPS-NH2; N-terminus assumed)
activity on GLP-1R compared to SEQ ID NO. 77, in words (human GLP-1R; Example 13): decreased
Ratio vs. GLP-1R, GLP-1R (human GLP-1R; Table 36): 100
Relative % to native ligand, GLP-1R (human GLP-1R; Table 36): 54%
Ratio vs. GLP-1R, GCGR (human GCGR; Table 36): 56
Relative % to native ligand, GCGR (human GCGR; Table 36): 30%
activity on GIPR compared to SEQ ID NO. 77, in words (human GIPR; Example 13): decreased
Ratio vs. GLP-1R, GIPR (human GIPR; Table 36): 103
Relative % to native ligand, GIPR (human GIPR; Table 36): 55%
half-life ([1]; pH 6.5, Half-life (min), FaSSIF/P): 45.2 min
half-life [2]: > 434 min
stability against trypsin compared with SEQ ID NO. 77, in words (trypsin): increased half-lives

CSCC[C@H](NC(=O)[C@H](Cc1ccc(O)cc1)NC(=O)[C@H](CC(=O)O)NC(=O)[C@H](CC(C)C)NC(=O)[C@H](CC(C)C)NC(=O)[C@H](CCCCNC(=O)COCCOCCNC(=O)COCCOCCNC(=O)CC[C@H](NC(=O)CCCCCCCCCCCCCCCCC(=O)O)C(=O)O)NC(=O)[C@H](CO)NC(=O)[C@H](Cc1ccc(O)cc1)NC(=O)[C@H](CC(=O)O)NC(=O)[C@H](CO)NC(=O)[C@@H](NC(=O)[C@H](Cc1ccccc1)NC(=O)[C@@H](NC(=O)CNC(=O)[C@H](CCC(N)=O)NC(=O)C(C)(C)NC(=O)[C@@H](N)Cc1ccc(O)cc1)[C@@H](C)O)[C@@H](C)O)C(=O)N[C@@H](CCSC)C(=O)N[C@@H](CCC(N)=O)C(=O)N[C@@H](CCCNC(=N)N)C(=O)N[C@@H](CC(=O)O)C(=O)N[C@@H](Cc1ccccc1)C(=O)N[C@H](C(=O)N[C@@H](CCCCNC(=O)CCCC[C@@H]1SC[C@@H]2NC(=O)N[C@@H]21)C(=O)N[C@@H](Cc1c[nH]c2ccccc12)C(=O)N[C@@H](CC(C)C)C(=O)N[C@@H](CC(C)C)C(=O)N[C@@H](CCC(=O)O)C(=O)NCC(=O)NCC(=O)N1CCC[C@H]1C(=O)N[C@@H](CO)C(=O)N[C@@H](CO)C(=O)NCC(=O)N[C@@H](C)C(=O)N1CCC[C@H]1C(=O)N1CCC[C@H]1C(=O)N1CCC[C@H]1C(=O)N[C@@H](CO)C(N)=O)C(C)C [compound 89] (H-Y[Aib]QGTFTSDYSK([AEEA-AEEA-γGlu-C18 diacid])LLDYMMQRDFVK(Biotin)WLLEGGPSSGAPPPS-NH2; N-terminus and C-terminus assumed)
Ratio vs. GLP-1R, GLP-1R (human GLP-1R; Table 31): 100
Relative % to native ligand, GLP-1R (human GLP-1R; Table 31): 38%
Ratio vs. GLP-1R, GCGR (human GCGR; Table 31): 117
Relative % to native ligand, GCGR (human GCGR; Table 31): 45%
Ratio vs. GLP-1R, GIPR (human GIPR; Table 31): 399
Relative % to native ligand, GIPR (human GIPR; Table 31): 154%
body weight loss effect compared to SEQ ID NO. 77, in words [3]: comparable to SEQ ID NO. 77
half-life ([1]; pH 6.5, Table 33, peptide:pancreatin weight ratio 25:1, FaSSIF pH 6.5, 37° C., read-out: Half-life): 43 min
intestinal stability in FaSSIF/P compared with SEQ ID NO. 77, in words (FaSSIF/P; Example 11): not inferior to that of SEQ ID No. 77
hepatic steatosis (histological score), in words [4]: significantly reduced
AUC(0-inf) ([5]; rats, single intraduodenal (ID) administration, read-out: AUCinf): 2790 ng·h/mL
Cmax ([5]; rats, single intraduodenal (ID) administration, read-out: mean Cmax): 332 ng/mL
half-life ([5]; rats, single intraduodenal (ID) administration, read-out: t1/2 (converted)): 434 min

CSCC[C@H](NC(=O)[C@H](Cc1ccc(O)cc1)NC(=O)[C@H](CC(=O)O)NC(=O)[C@H](CC(C)C)NC(=O)[C@H](CC(C)C)NC(=O)[C@H](CCCCNC(=O)COCCOCCNC(=O)COCCOCCNC(=O)CC[C@H](NC(=O)CCCCCCCCCCCCCCCCC(=O)O)C(=O)O)NC(=O)[C@H](CO)NC(=O)[C@H](Cc1ccc(O)cc1)NC(=O)[C@H](CC(=O)O)NC(=O)[C@H](CO)NC(=O)[C@@H](NC(=O)[C@H](Cc1ccccc1)NC(=O)[C@@H](NC(=O)CNC(=O)[C@H](CCC(N)=O)NC(=O)C(C)(C)NC(=O)[C@@H](N)Cc1ccc(O)cc1)[C@@H](C)O)[C@@H](C)O)C(=O)N[C@@H](CCSC)C(=O)N[C@@H](CCC(N)=O)C(=O)N[C@@H](CCCNC(=N)N)C(=O)N[C@@H](CC(=O)O)C(=O)N[C@@H](Cc1ccccc1)C(=O)N[C@H](C(=O)N[C@@H](CCC(N)=O)C(=O)N[C@@H](Cc1c[nH]c2ccccc12)C(=O)N[C@@H](CC(C)C)C(=O)N[C@@H](CC(C)C)C(=O)N[C@@H](CCC(=O)O)C(=O)NCC(=O)NCC(=O)N1CCC[C@H]1C(=O)N[C@@H](CO)C(=O)N[C@@H](CO)C(=O)NCC(=O)N[C@@H](C)C(=O)N1CCC[C@H]1C(=O)N1CCC[C@H]1C(=O)N1CCC[C@H]1C(=O)N[C@@H](CO)C(=O)N[C@@H](CCCCNC(=O)CCCC[C@@H]1SC[C@@H]2NC(=O)N[C@@H]21)C(N)=O)C(C)C [compound 90] (H-Y[Aib]QGTFTSDYSK([AEEA-AEEA-γGlu-C18 diacid])LLDYMMQRDFVQWLLEGGPSSGAPPPSK(Biotin)-NH2; N-terminus and C-terminus assumed)
Ratio vs. GLP-1R, GLP-1R (human GLP-1R; Table 31): 100
Relative % to native ligand, GLP-1R (human GLP-1R; Table 31): 50%
Ratio vs. GLP-1R, GCGR (human GCGR; Table 31): 39
Relative % to native ligand, GCGR (human GCGR; Table 31): 19%
Ratio vs. GLP-1R, GIPR (human GIPR; Table 31): 311
Relative % to native ligand, GIPR (human GIPR; Table 31): 154%
body weight loss effect compared to SEQ ID NO. 77, in words [3]: comparable to SEQ ID NO. 77
half-life ([1]; pH 6.5, Half-life (min)): 42.1 min
intestinal stability in FaSSIF/P compared with SEQ ID NO. 77, in words (FaSSIF/P): not inferior to that of SEQ ID No. 77
AUC(0-inf) [5]: 2490 ng·h/mL
Cmax [5]: 282 ng/mL
half-life [5]: 502 min
time at which Cmax was reached [5]: 0.30 h
